In patent publication US20230371508A1, “COMPOSITIONS AND METHODS FOR KILLING INSECT AND NON-INSECT PESTS” (The United States of America, as represented by the …, priority 2018, published 2023):
In brackets after ≈: the same amount, converted by molar mass. Entries after “also recorded” stand apart in the source; their conditions may differ. Where two headings read alike, the source gives them in different places.

Columns and labels:
H. halys eggs = assay: Ovicidal toxicity, direct spray on eggs; assay type: in vivo; conditions: eggs sprayed, 10 days
Source text: (§1) Ovicidal toxicities of MB and some compounds of formula 1: The aqueous solutions of one of the compounds of formula 1 with designated concentrations with different concentrations of active ingredient (AI) were separately stored in glass spray bottles according to a published procedure (Cuthbertson 2014). The eggs (10 for H. halys and 100 for P. xylostella) were laid on filter papers in Petri dishes. Different aqueous insecticidal solutions were sprayed on the surfaces of different eggs three times (˜0.5 mL) to completely cover the treatment areas. Then the Petri dishes were covered with lids and maintained in a fume hood for 10 days. The Petri dishes were then inspected for presence of nymph/larvae development or numbers of unhatched eggs.

D. suzukii = assay: Insecticidal activity on larvae and pupae development and adult emergence in pre-infested blueberries (dip); assay type: in vivo, Drosophila suzukii; conditions: for Adults / Larvae / Pupae: pre-infested berries soaked 2 min in 1% solution, assessed after 10 days at room temperature, mean of three replicates (standard error)
Method: Impacts of MB and other compounds on D. suzukii control: To investigate the acute toxicity of some compounds of formula 1 against D. suzukii, a published procedure was followed (Cuthbertson, A. G. S., et al., Insects, 5: 488-498 (2014)). First, mixed-sex adults D. suzukii (100) were introduced into a plastic cage (30×30×30 cm) and reared on blueberries (100) for 4 days. After that, the infested blueberries were taken out from the cage. Half of the blueberries (50) were dipped in 100 mL aqueous emulsion of each compound listed in Table 1 at 1% concentration for 2 min as treatment, while the other half of the blueberries (50) were dipped in DI water for 2 min as blank control. Then the corresponding blueberries were separately taken out, placed in two different Petri dishes, and allowed to air dry for 2 h. Second, treatment and blank control blueberries were respectively stored in two plastic cups (32 oz) with closed caps and incubated at room temperature for 10 days. The emergence of adults was then subsequently assessed. The developments of larvae and pupae were further inspected by dissection of the treatment and blank control berries. Each treatment and blank control was repeated three times.

H. halys nymphs [1] = assay: Nymphicidal toxicity, treated filter paper in glass vial; assay type: in vivo; conditions: for LC50 (95% CL): 24 hr
Method: Toxicities of MB, some compounds of formula 1, and commercial pesticides on H. halys nymphs: The bioassays were carried out in glass vials (20 mL), following a published procedure (Nielsen, A. L., et al., J. Econ. Entomol., 101: 1439-1442 (2008)). Filter paper was cut into round shape pieces (2.4 cm diameter). 50 μL acetone solution of one derivative or commercial pesticide with different concentrations was loaded onto the filter paper evenly, and the filter paper was dried for 1 min and then put into the bottom of vial. A small piece of green bean was put on the filter paper in the vial as food source. Different stages of H. halys nymphs were introduced into the vial and capped with a cotton ball. For each stage, 30 nymphs were used for each amount. For the nymphs of the first instar, 10 nymphs were put into 1 vial. For the nymphs of the second and third instar, 5 nymphs were put into 1 vial. For the nymphs of the fourth instar, 3 nymphs were put into 1 vial. For the nymphs of the fifth instar, 2 nymphs were put into 1 vial. The mortality was assessed after 24 hr.

S. invicta workers [2] = conditions: for increase of mean mortality compared with MB / mean mortality: dose 77.9 μg/ant, 24 h
Method: Fire ant bioassays were conducted in USDA, ARS Stoneville laboratory at 25° C., 80% R.H. with a 12:12 (L:D) photoperiod. Contact toxicities of MB and some compounds of formula 1 against fire ants: Topical application was used for contact toxicity bioassay. Only large workers were used for a purpose of relatively uniform body weight and ease of handling. For all compounds, acetone was used as a solvent. The solution was applied using a 0.779 μl capillary tube. Two experiments were conducted for assessing contact toxicity. […] In order to investigate the structure-activity relationship, LD50 values were also established for MB and EB. […] For each LD50 value, 5 doses of benzoates were used. Each dose was replicated 3 times. Each replicate consisted of 13 to 18 ants. Treated ants were placed in a 30-ml capped cup and dead ants were counted after 24 h.

[3] = Release rate (evaporation from cotton ball in tube); assay type: physicochemical; conditions: room temperature, hood air flow 129 FPM
Method: Release rate: Release rate tests of selective compounds were carried out in the laboratory. 1 mL of each compound was loaded on a cotton ball in a polypropylene flex tube (1.5 mL Eppendorf micro-centrifuge tube, VWR International, Radnor, PA). The tubes were hung in the hood with air flow of 129 FPM. At 2 pm on each weekday, the tubes were weighed and recorded (Zhang, A., et al., Environ. Entomol., 37: 719-724 (2008)). Each treatment was replicated 5 times.

S. invicta workers [4] = assay: Fumigant toxicity in sealed glass flask; assay type: in vivo, Solenopsis invicta; conditions: for fumigant toxicity against S. invicta (in words): in vivo; for LC50 / mortality at 1.43 µg/mL: Solenopsis invicta
Method: A 250-ml glass flask (the whole volume is 280 ml) was used to house worker ants in fumigant toxicity bioassays. Two micro-liter of acetone solution of the tested compound was applied onto a paraffin film, which was used to seal the flask with ants. The treated spot of the paraffin film faced the inside of the flask. The upper part of the flask was coated with Fluon® to prevent ants from contacting the test material. Two experiments were conducted. […] LC50 value was established using 5 dosages. Each dosage was replicated 3 times for each of 3 colonies. Each replicate consisted of 15 to 26 ants. Ants that could not stand by themselves were considered dead. Dead ants were counted after 24 h.

L. dispar larvae = assay: Larvicidal toxicity, treated filter paper in Petri dish; assay type: in vivo; conditions: for LC50 (95% CL): 1st stage larvae, 24 hr; for decreased toxicities compared with MB: from LC50 values; for larvicidal toxicity against L. dispar (in words): in vivo
Method: Toxicities of MB and some compounds of formula 1 on L. dispar larvae: The bioassays were carried out in plastic Petri dish loaded with filter paper, following a published procedure (Nielsen 2008). 600 μL acetone solution of one derivative with different concentrations was loaded onto the filter paper (90 mm diameter) evenly, and the filter paper was dried for 2 min and then put into the bottom of Petri dish. 10 L. dispar larvae were put onto the Petri dish and covered with a lid. 30 larvae were used for each amount. The mortality was assessed after 24 hr.

Plutella xylostella eggs = assay: Ovicidal toxicity, direct spray on eggs; assay type: in vivo; conditions: hatchability after 10 days; 0.05% and 0.1% concentrations (FIG. 3)
Source text: as §1

[5] = Sigma-Aldrich SDS; cited from earlier work
H. halys nymphs [6] = conditions: 24 hr, copied from previous research, cited from earlier work
[7] = 24 h, read-out: mean LC50 value, mean over colonies, 24 h
[8] = 24 h, read-out: mean mortality, dosage 1.43 μg/ml, 24 h

| SMILES | LC50 (95% CL) (H. halys eggs) | Adults (D. suzukii) | Larvae (D. suzukii) | Pupae (D. suzukii) | LC50 (95% CL) (H. halys nymphs [1]; 2nd stage nymphs) | LD50 (S. invicta workers [2]; colony 1, 24 h) [μg/ant] | LD50 (S. invicta workers [2]; colony 2, 24 h) [μg/ant] | LD50 (S. invicta workers [2]; colony 3, 24 h) [μg/ant] | increase of mean mortality compared with MB (S. invicta workers [2]) [times] | mean mortality (S. invicta workers [2]) [%] | first order evaporation rate constant k (exponent of fitted curve) [3] | fumigant toxicity against S. invicta (in words) (S. invicta workers [4]) | LC50 (95% CL) (L. dispar larvae) | decreased toxicities compared with MB (L. dispar larvae) [%] | LC50 (S. invicta workers [4]; 24 h, colony 1, 24 h) [µg/mL] | LC50 (S. invicta workers [4]; 24 h, colony 2, 24 h) [µg/mL] | LC50 (S. invicta workers [4]; 24 h, colony 3, 24 h) [µg/mL] | LC50 (S. invicta workers [4]; [7]) [µg/mL] | mortality at 1.43 µg/mL (S. invicta workers [4]; [8]) [%] | larvicidal toxicity against L. dispar (in words) (L. dispar larvae) | also measured |
| --- | --- | --- | --- | --- | --- | --- | --- | --- | --- | --- | --- | --- | --- | --- | --- | --- | --- | --- | --- | --- | --- |
| COC(=O)c1ccccc1OC [M2MOB, methyl 2-methoxybenzoate] | 0.011 (0.006-0.015) mg/cm^2 | 0 | 0 | 0 | 1.530 (1.309-1.951) μL/vial | 67.73 | 96.43 | 78.34 | 7 | 55.74 | 8E-04 | significantly reduced | 0.230 (0.170-0.294) mg/cm^2 | 50 | – | – | – | – | – | – | – |
| C=COC(=O)c1ccccc1 [VB, vinyl benzoate] | 0.017 (0.010-0.024) mg/cm^2 | 0 | 0 | 0 | 1.131 (0.757-1.337) μL/vial | – | – | – | – | – | – | powerful fumigant toxicities | 0.065 (0.059-0.071) mg/cm^2 | – | 0.95 (≈ 6.41 µM) | 0.77 (≈ 5.2 µM) | 0.96 (≈ 6.48 µM) | 0.89 (≈ 6.01 µM) | ~100 | highest larvicidal toxicity | ovicidal toxicity against P. xylostella eggs (in words) (Plutella xylostella eggs): highest toxicity; times more toxic than commercial pesticide acetamiprid (L. dispar larvae; ratio of LC50 values): 3.4 times; times more toxic than commercial pesticide pyriproxyfen (L. dispar larvae; ratio of LC50 values): 1.3 times |
| COC(=O)c1cccc(OC)c1 [M3MOB, methyl 3-methoxybenzoate] | 0.016 (0.008-0.026) mg/cm^2 | 0 | 0 | 0 | – | 112.72 | 81.78 | 47.52 | 6 | 47.23 | – | – | 0.234 (0.216-0.258) mg/cm^2 | 50 | 0.64 (≈ 3.85 µM) | 0.54 (≈ 3.25 µM) | 0.65 (≈ 3.91 µM) | 0.61 (≈ 3.67 µM) | ~100 | – | LC50 (95% CL) (H. halys nymphs [1]; 3rd stage nymphs): 1.509 (1.322-1.792) μL/vial; hazard according to Safety Data Sheet (SDS) from the producer [5]: not even considered as a hazardous substance |
| COC(=O)c1ccccc1 [MB, methyl benzoate] | 0.020 (0.012-0.026) mg/cm^2 | 0 | 0 | 0 | – | 149.39 | 93.65 | 128.45 | – | 7.67 | 0.162 | powerful fumigant toxicities | 0.114 (0.091-0.134) mg/cm^2 | – | – | – | – | – | – | – | LC50 (95% CL) (H. halys nymphs [6]; 1st stage nymphs): 1.03 (0.93-1.10) μL/vial; LC50 (95% CL) (H. halys nymphs [6]; 2nd stage nymphs): 1.01 (0.86-1.12) μL/vial; LC50 (95% CL) (H. halys nymphs [6]; 3rd stage nymphs): 1.23 (1.12-1.33) μL/vial; LC50 (95% CL) (H. halys nymphs [6]; 4th stage nymphs): 2.39 (2.19-2.60) μL/vial; LC50 (95% CL) (H. halys nymphs [6]; 5th stage nymphs): 1.77 (1.60-1.93) μL/vial; LC50 (S. invicta workers [4]; 24 h, colony 1, 24 h, read-out: LC50): 0.77 µg/mL (≈ 5.66 µM); LC50 (S. invicta workers [4]; 24 h, colony 2, 24 h, read-out: LC50): 0.66 µg/mL (≈ 4.85 µM); LC50 (S. invicta workers [4]; 24 h, colony 3, 24 h, read-out: LC50): 0.82 µg/mL (≈ 6.02 µM); mortality at 1.43 µg/mL (S. invicta workers [4]; 24 h, dosage 1.43 μg/ml, 24 h, read-out: mean mortality): ~100%; LC50 (S. invicta workers [4]; 24 h, mean over colonies, 24 h, read-out: mean LC50 value): 0.75 µg/mL (≈ 5.51 µM); mean mortality (S. invicta workers [4]; dosage 1.43 μg/ml, 24 h): 100% |
| CCCCCCOC(=O)c1ccccc1 [nHB, n-hexyl benzoate] | – | 33.7(7.4) | 7.0(1.0) | 40.3(7.0) | – | 37.1 | 42.23 | 28.64 | – | – | – | – | – | – | – | – | – | – | – | did not show any toxicities | insecticidal toxicity against D. suzukii (in words) (D. suzukii; 1% concentration on 4 days pre-infested blueberries, 10 days incubation): did not show any insecticidal activities; toxicity against H. halys nymphs (in words) (H. halys nymphs [1]; in vivo): did not show toxicities; contact toxicity against S. invicta (in words) (S. invicta workers [2]; in vivo): comparable results; also recorded: potent contact toxicities; hazard according to Safety Data Sheet (SDS) from the producer [5]: neither known OSHA hazards nor aquatic toxicity |
